Measurements from patent US20250235501A1, “Methods and Compositions for Treating or Preventing Neurological Injury or Neurological Disorders” (University of Connecticut, priority 2024, published 2025).

Columns and labels:
[1] = molecular target: T1, TRPM2 interaction with GluN2b (Rattus norvegicus, UniProt Q00960); assay: Co-IP of TRPM2 with GluN2b in co-transfected HEK293T cells; format: cell-based, human; conditions: 10 μM peptide overnight; IP anti-GluN2b, WB anti-Flag
T1 construct: TRPM2 plasmid a gift 17928; 17924; 17925; host or cells: HEK293T
T1 sequence (Q00960 27-1482, other chains not shown): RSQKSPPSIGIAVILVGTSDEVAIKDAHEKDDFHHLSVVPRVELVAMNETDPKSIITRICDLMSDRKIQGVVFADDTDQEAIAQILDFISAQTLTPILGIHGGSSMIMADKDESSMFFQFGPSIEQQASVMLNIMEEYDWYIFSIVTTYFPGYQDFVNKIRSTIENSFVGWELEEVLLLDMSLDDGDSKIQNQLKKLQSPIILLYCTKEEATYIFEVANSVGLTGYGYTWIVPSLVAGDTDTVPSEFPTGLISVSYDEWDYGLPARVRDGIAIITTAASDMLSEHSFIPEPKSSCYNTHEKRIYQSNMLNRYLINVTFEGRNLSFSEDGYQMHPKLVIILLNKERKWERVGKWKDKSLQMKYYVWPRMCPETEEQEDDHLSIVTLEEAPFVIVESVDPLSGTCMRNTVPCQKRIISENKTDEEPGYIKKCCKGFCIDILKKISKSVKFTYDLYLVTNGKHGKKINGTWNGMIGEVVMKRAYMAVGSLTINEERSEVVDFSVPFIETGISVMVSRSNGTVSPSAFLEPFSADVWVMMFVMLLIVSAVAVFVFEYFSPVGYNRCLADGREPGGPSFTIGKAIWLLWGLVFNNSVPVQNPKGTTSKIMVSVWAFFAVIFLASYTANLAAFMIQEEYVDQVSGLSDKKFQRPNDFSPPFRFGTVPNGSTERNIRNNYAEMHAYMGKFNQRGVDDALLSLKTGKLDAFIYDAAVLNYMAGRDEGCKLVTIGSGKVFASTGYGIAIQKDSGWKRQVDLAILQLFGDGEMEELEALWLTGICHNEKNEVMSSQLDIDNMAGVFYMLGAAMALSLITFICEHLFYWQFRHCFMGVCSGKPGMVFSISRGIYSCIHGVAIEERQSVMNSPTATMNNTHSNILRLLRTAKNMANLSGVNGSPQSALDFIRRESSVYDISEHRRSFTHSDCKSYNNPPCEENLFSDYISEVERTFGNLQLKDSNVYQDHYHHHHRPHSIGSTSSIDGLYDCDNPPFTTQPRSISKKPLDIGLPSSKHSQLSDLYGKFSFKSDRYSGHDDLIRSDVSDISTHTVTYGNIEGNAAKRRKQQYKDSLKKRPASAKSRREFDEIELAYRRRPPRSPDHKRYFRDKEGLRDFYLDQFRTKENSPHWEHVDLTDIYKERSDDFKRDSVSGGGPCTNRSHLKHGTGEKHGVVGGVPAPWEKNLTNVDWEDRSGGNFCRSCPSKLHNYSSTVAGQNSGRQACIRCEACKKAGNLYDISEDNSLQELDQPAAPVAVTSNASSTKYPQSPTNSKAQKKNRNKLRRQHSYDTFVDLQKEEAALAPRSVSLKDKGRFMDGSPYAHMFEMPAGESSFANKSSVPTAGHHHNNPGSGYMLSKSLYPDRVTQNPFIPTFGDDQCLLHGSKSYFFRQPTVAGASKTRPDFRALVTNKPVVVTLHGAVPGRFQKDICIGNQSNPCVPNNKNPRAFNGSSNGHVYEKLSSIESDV
Procedure: FIGS. 5A and 5B show the effects of TAT-EE3 on interaction of TRPM2 and NMDARs. Co-IP tests of NMDARs with WT or EE3 domain mutants of TRPM2 (Flag-tagged) in co-transfected HEK293T cells. WT TRPM2 groups were treated with 10 μM TAT-SC or TAT-EE3 overnight. Lysates were IP's with anti-GluN2a (FIG. 5A) or anti-GluN2b (FIG. 5B), and probed by WBs with anti-Flag. IgG was used as control for IP. Similar to the mutants TRPM2-ΔEE3 and TRPM2-EQE, TAT-EE3 disrupted TRPM2 interaction with GluN2a and GluN2b.
were ordered from GenScript Biotech, and dissolved in PBS to make a stock concentration at 10 mM. HEK-293T cells or isolated neurons were treated with TAT-SC or TAT-EE3 at a concentration of 10 μM for at least 8 h prior to use. Mice were injected with TAT-SC or TAT-EE3 intraperitoneally (ip) at a dose of 100 nmol/kg. […]
NP-40 lysis buffer ([…], 150 mM NaCl, 1 mM EDTA, 50 mM Tris, pH=8.0) containing proteinase inhibitors (Sigma-Aldrich, 539131-10VL) and phosphatase inhibitors (Thermal Fisher Scientific, 78428) was used to lyse both cultured cells and frozen brain tissue. […] Protein concentration was measured using Pierce™ Rapid Gold BCA Protein Assay Kit (Thermal Fisher Scientific, A53225). […] Then samples were ready for western blotting analysis.

MCAO mice = assay: Middle cerebral artery occlusion (MCAO) ischemic stroke model; format: in vivo, mouse
[2] = 100 nmol/kg ip 15 mins before MCAO, 24 hrs after MCAO, vs TAT-SC-treated mice
[3] = 1 h MCAO, administered every 12 h, day 1, day 3, and day 7
[4] = FIGS. 18C-18E, pre-MCAO administration i.p. 30 min before MCAO
[5] = post-MCAO treatment, injected right before reopening of the MCA, WT mice

In the case of “TAT-EE3: membrane permeable disrupting peptide, sequence YGRKKRRQRRREEDTDSSEEMLALAEE (SEQ ID NO: 4)”, the “interaction of TRPM2 with GluN2b (co-IP)” value [1] was “completely disrupted”, the infarct volume (MCAO mice; [2]) was “significantly reduced” and the neurological behavior scores (MCAO mice; [2]) was “improved”. The “ND scores, long-term MCAO (7 days)” value (MCAO mice; [3]) was “improved”, the “latency to fall time (rotarod test), long-term MCAO” value (MCAO mice; [3]) was “inhibited the reduction” and the infarct volume (MCAO mice; [4]) was “reduced”. For the same substance, the “neurological deficit (ND) score” value (MCAO mice; [4]) was “improved”, the ND score (MCAO mice; [5]) was “improved” and the infarct volume (MCAO mice; [5]) was “reduced”. The “protective effects in nM2KO mice” value (MCAO mice; post-MCAO treatment, neuron-specific TRPM2 knockout mice) was “did not produce further protective effects”.
